Test results reported in patent US9290777B2, “Putative cytokinin receptor and methods for use thereof” (NATIONAL UNIVERSITY OF SINGAPORE, priority 2007, dated 2016).

Tested on: ARR5
Experiment: qRT-PCR of cytokinin responsive gene after BA pulse, fold change vs untreated wild type
Type: cell-based, Arabidopsis thaliana

SMILES: c1ccc(CNc2ncnc3nc[nH]c23)cc1 [benzyladenine]
- ARR5 fold change (BA 0.01 μM, 5 min, AS1, ↑ up): 4.33↑
- ARR5 fold change (BA 0.01 μM, 5 min, AS8, ↑ up): 6.12↑
- ARR5 fold change (BA 0.01 μM, 5 min, AS21, ↑ up): 8.2↑
- ARR5 fold change (BA 0.01 μM, 5 min, OE1, ↓ down): 4.51↓
- ARR5 fold change (BA 0.01 μM, 5 min, OE12, ↓ down): 5.87↓
- ARR5 fold change (BA 0.01 μM, 5 min, OE18, ↓ down): 7.33↓
- ARR5 fold change (BA 0.01 μM, 5 min, Wild type, ↑ up): 3.55↑
- ARR5 fold change (BA 0.01 μM, 15 min, AS1, ↑ up): 4.77↑
- ARR5 fold change (BA 0.01 μM, 15 min, AS8, ↑ up): 6.68↑
- ARR5 fold change (BA 0.01 μM, 15 min, AS21, ↑ up): 8.58↑
- ARR5 fold change (BA 0.01 μM, 15 min, OE1, ↓ down): 4.33↓
- ARR5 fold change (BA 0.01 μM, 15 min, OE12, ↓ down): 5.55↓
- ARR5 fold change (BA 0.01 μM, 15 min, OE18, ↓ down): 7.03↓
- ARR5 fold change (BA 0.01 μM, 15 min, Wild type, ↑ up): 3.64↑
- ARR5 fold change (BA 0.01 μM, 30 min, AS1, ↑ up): 5.01↑
- ARR5 fold change (BA 0.01 μM, 30 min, AS8, ↑ up): 6.82↑
- ARR5 fold change (BA 0.01 μM, 30 min, AS21, ↑ up): 8.79↑
- ARR5 fold change (BA 0.01 μM, 30 min, OE1, ↓ down): 4.11↓
- ARR5 fold change (BA 0.01 μM, 30 min, OE12, ↓ down): 5.21↓
- ARR5 fold change (BA 0.01 μM, 30 min, OE18, ↓ down): 6.91↓
- ARR5 fold change (BA 0.01 μM, 30 min, Wild type, ↑ up): 4.11↑
- ARR5 fold change (BA 0.01 μM, 1 h, AS1, ↑ up): 5.11↑
- ARR5 fold change (BA 0.01 μM, 1 h, AS8, ↑ up): 7.16↑
- ARR5 fold change (BA 0.01 μM, 1 h, AS21, ↑ up): 9.15↑
- ARR5 fold change (BA 0.01 μM, 1 h, OE1, ↓ down): 3.91↓
- ARR5 fold change (BA 0.01 μM, 1 h, OE12, ↓ down): 4.96↓
- ARR5 fold change (BA 0.01 μM, 1 h, OE18, ↓ down): 6.63↓
- ARR5 fold change (BA 0.01 μM, 1 h, Wild type, ↑ up): 4.3↑
- ARR5 fold change (BA 0.1 μM, 5 min, AS1, ↑ up): 5.34↑
- ARR5 fold change (BA 0.1 μM, 5 min, AS8, ↑ up): 7.32↑
- ARR5 fold change (BA 0.1 μM, 5 min, AS21, ↑ up): 9.31↑
- ARR5 fold change (BA 0.1 μM, 5 min, OE1, ↓ down): 4.1↓
- ARR5 fold change (BA 0.1 μM, 5 min, OE12, ↓ down): 4.71↓
- ARR5 fold change (BA 0.1 μM, 5 min, OE18, ↓ down): 6.69↓
- ARR5 fold change (BA 0.1 μM, 5 min, Wild type, ↑ up): 4.66↑
- ARR5 fold change (BA 0.1 μM, 15 min, AS1, ↑ up): 5.59↑
- ARR5 fold change (BA 0.1 μM, 15 min, AS8, ↑ up): 7.49↑
- ARR5 fold change (BA 0.1 μM, 15 min, AS21, ↑ up): 9.46↑
- ARR5 fold change (BA 0.1 μM, 15 min, OE1, ↓ down): 4.04↓
- ARR5 fold change (BA 0.1 μM, 15 min, OE12, ↓ down): 4.63↓
- ARR5 fold change (BA 0.1 μM, 15 min, OE18, ↓ down): 6.51↓
- ARR5 fold change (BA 0.1 μM, 15 min, Wild type, ↑ up): 4.78↑
- ARR5 fold change (BA 0.1 μM, 30 min, AS1, ↑ up): 5.89↑
- ARR5 fold change (BA 0.1 μM, 30 min, AS8, ↑ up): 7.73↑
- ARR5 fold change (BA 0.1 μM, 30 min, AS21, ↑ up): 9.68↑
- ARR5 fold change (BA 0.1 μM, 30 min, OE1, ↓ down): 3.9↓
- ARR5 fold change (BA 0.1 μM, 30 min, OE12, ↓ down): 4.4↓
- ARR5 fold change (BA 0.1 μM, 30 min, OE18, ↓ down): 6.23↓
- ARR5 fold change (BA 0.1 μM, 30 min, Wild type, ↑ up): 4.95↑
- ARR5 fold change (BA 0.1 μM, 1 h, AS1, ↑ up): 6.07↑
- ARR5 fold change (BA 0.1 μM, 1 h, AS8, ↑ up): 8.04↑
- ARR5 fold change (BA 0.1 μM, 1 h, AS21, ↑ up): 9.97↑
- ARR5 fold change (BA 0.1 μM, 1 h, OE1, ↓ down): 3.67↓
- ARR5 fold change (BA 0.1 μM, 1 h, OE12, ↓ down): 4.01↓
- ARR5 fold change (BA 0.1 μM, 1 h, OE18, ↓ down): 6.01↓
- ARR5 fold change (BA 0.1 μM, 1 h, Wild type, ↑ up): 5.06↑
- ARR5 fold change (BA 1.0 μM, 5 min, AS1, ↑ up): 6.62↑
- ARR5 fold change (BA 1.0 μM, 5 min, AS8, ↑ up): 8.59↑
- ARR5 fold change (BA 1.0 μM, 5 min, AS21, ↑ up): 9.99↑
- ARR5 fold change (BA 1.0 μM, 5 min, OE1, ↓ down): 3.96↓
- ARR5 fold change (BA 1.0 μM, 5 min, OE12, ↓ down): 3.99↓
- ARR5 fold change (BA 1.0 μM, 5 min, OE18, ↓ down): 5.36↓
- ARR5 fold change (BA 1.0 μM, 5 min, Wild type, ↑ up): 5.21↑
- ARR5 fold change (BA 1.0 μM, 15 min, AS1, ↑ up): 6.88↑
- ARR5 fold change (BA 1.0 μM, 15 min, AS8, ↑ up): 8.93↑
- ARR5 fold change (BA 1.0 μM, 15 min, AS21, ↑ up): 10.12↑
- ARR5 fold change (BA 1.0 μM, 15 min, OE1, ↓ down): 3.71↓
- ARR5 fold change (BA 1.0 μM, 15 min, OE12, ↓ down): 3.46↓
- ARR5 fold change (BA 1.0 μM, 15 min, OE18, ↓ down): 5.21↓
- ARR5 fold change (BA 1.0 μM, 15 min, Wild type, ↑ up): 5.46↑
- ARR5 fold change (BA 1.0 μM, 30 min, AS1, ↑ up): 6.93↑
- ARR5 fold change (BA 1.0 μM, 30 min, AS8, ↑ up): 9.09↑
- ARR5 fold change (BA 1.0 μM, 30 min, AS21, ↑ up): 10.35↑
- ARR5 fold change (BA 1.0 μM, 30 min, OE1, ↓ down): 3.49↓
- ARR5 fold change (BA 1.0 μM, 30 min, OE12, ↓ down): 3.77↓
- ARR5 fold change (BA 1.0 μM, 30 min, OE18, ↓ down): 5.01↓
- ARR5 fold change (BA 1.0 μM, 30 min, Wild type, ↑ up): 5.79↑
- ARR5 fold change (BA 1.0 μM, 1 h, AS1, ↑ up): 7.31↑
- ARR5 fold change (BA 1.0 μM, 1 h, AS8, ↑ up): 9.17↑
- ARR5 fold change (BA 1.0 μM, 1 h, AS21, ↑ up): 10.76↑
- ARR5 fold change (BA 1.0 μM, 1 h, OE1, ↓ down): 3.21↓
- ARR5 fold change (BA 1.0 μM, 1 h, OE12, ↓ down): 3.52↓
- ARR5 fold change (BA 1.0 μM, 1 h, OE18, ↓ down): 4.72↓
- ARR5 fold change (BA 1.0 μM, 1 h, Wild type, ↑ up): 6.07↑
- ARR5 fold change (BA 5.0 μM, 5 min, AS1, ↑ up): 7.01↑
- ARR5 fold change (BA 5.0 μM, 5 min, AS8, ↑ up): 9.56↑
- ARR5 fold change (BA 5.0 μM, 5 min, AS21, ↑ up): 10.43↑
- ARR5 fold change (BA 5.0 μM, 5 min, OE1, ↓ down): 3.19↓
- ARR5 fold change (BA 5.0 μM, 5 min, OE12, ↓ down): 3.59↓
- ARR5 fold change (BA 5.0 μM, 5 min, OE18, ↓ down): 4.25↓
- ARR5 fold change (BA 5.0 μM, 5 min, Wild type, ↑ up): 6.72↑
- ARR5 fold change (BA 5.0 μM, 15 min, AS1, ↑ up): 7.31↑
- ARR5 fold change (BA 5.0 μM, 15 min, Wild type, ↑ up): 6.99↑
- ARR5 fold change (BA 5.0 μM, 1 h, AS1, ↑ up): 7.86↑
- ARR5 fold change (BA 5.0 μM, 1 h, AS8, ↑ up): 10.05↑
- ARR5 fold change (BA 5.0 μM, 1 h, AS21, ↑ up): 10.93↑
- ARR5 fold change (BA 5.0 μM, 1 h, OE1, ↓ down): 2.54↓
- ARR5 fold change (BA 5.0 μM, 1 h, OE12, ↓ down): 2.78↓
- ARR5 fold change (BA 5.0 μM, 1 h, OE18, ↓ down): 3.89↓
- ARR5 fold change (BA 5.0 μM, 1 h, Wild type, ↑ up): 7.24↑
